Earlier results, collected in patent US20130287898A1, “Trivalent Chromium and Boron Fortifying Composition, a Hydration Supplement, and Process for Preparing the Same” (priority 2010, published 2013).
One block for each molecule: values may come before it.

Assays:
[1] = humans, 270 mg orally
[2] = Expert group of vitamins & Minerals, UK - 2003
[3] = in vivo

Structure (SMILES): OB(O)O [boric acid]
discomfort / signs of toxicity [1]: no obvious signs of toxicity

Structure (SMILES): [Cr] [Chromium]
Safe Upper level per day [2]: 10 mg

absorption from the gastrointestinal tract [3]: well absorbed
excreted through urine [3]: about 90%
Structure (SMILES): [B] [Boron]
